Laboratory results taken from article PMC11941939, “Tackling Prostate Cancer with Theranostic E5B9-Bombesin Target Modules (TMs): From Imaging to Treatment with UniCAR T-Cells” (International Journal of Molecular Sciences, 2025).
Where two headings read alike, the source gives them in different places. Starred links: 1 amine or outer side, 2 acyl side, 3 side chain; linkers in the order of their positions; H or OH if unused. Positions of bridges follow the written chain, without caps; N, C: chain ends. Non-standard residues stand in square brackets, D forms with d. Residues, ends and D or L forms follow the SMILES beside them. Chains are numbered I, II in the order given. *: point of attachment. NOTA(2S-Bn(4-NHCS)) = O=C(O)CN1CCN(CC(=O)O)C[C@H](Cc2ccc(NC(=S)*)cc2)N(CC(=O)O)CC1; X1 = O=C([C@H](CCCCn1nnc2c1-c1ccccc1CN([*:3])c1ccccc1-2)N[*:1])[*:2]; X2 = O=C(CCOCCOCCOCCOCCNC(=O)CCN1C(=O)CC([*:1])C1=O)NCCC(=O)[*:2]; γ4hIle = CC[C@H](C)[C@@H](CCC(=O)[*:2])N[*:1]; Tle = CC(C)(C)[C@H](N)C(=O)O; Ava = NCCCCC(=O)O; Sar = CNCC(=O)O

Key:
GRPR = target: T1, GRPR (Homo sapiens, UniProt P30550); experiment: Competitive binding assay against 125I-Tyr4-bombesin in PC3 cells
T1 construct: Both cell lines express GRPR; endogenous in cells; host or cells: PC-3 cells (dimeric TM also tested in LNCaP cells)
Protocol: Then, ^125I-Tyr^4-BBN (0.05 nM final concentration) was added to each well, and the plates were incubated for 2 h at 4 °C. The cells were then rinsed twice with ice-cold phosphate-buffered saline (PBS) and harvested. The cells were placed on a Packard II gamma counter (PerkinElmer, Boston, MA, USA) to determine the cell-associated radioactivity. After decay correction, data were plotted using GraphPad Prism 9 Software (San Diego, CA, USA) using the sigmoidal dose–response equation, with counts per minute (cpm) of radioactivity bound versus the log of the concentration of NOTA-E5B9-BBN2 monomeric or dimeric TM for the determination of IC50 values. NOTA-E5B9-BBN2 dimeric TM was also tested in LNCaP cells. Gastrin-releasing peptide (GRP) served as the control.

PC3 tumors = experiment: Dynamic PET imaging, tumor uptake in PC3 xenografts; type: in vivo, mouse; details: PC3 tumors, pre-dosing i.v. with 300 µg Ava-BBN2 15 min before radiotracer, n = 3, p < 0.05
Protocol: (§1) For PET experiments and as prostate cancer xenograft models, male PC3 and LNCaP tumor-bearing BALB/c Nude mice were used (body weight: 22−24 g, Charles River Laboratories, Saint-Constant, QC, Canada). To generate the tumor xenografts, about 5−6 × 10^6 PC3 cells in 100 μL of PBS or 20−25 × 10^6 LNCaP cells in 200 μL of PBS/Matrigel (50/50) were subcutaneously injected into the left shoulder of male BALB/c Nude mice. For the androgen-dependent LNCaP model, a 1.5 mg pellet containing dehydroepiandrosterone DHEA (60-day release; Innovative Research of America, Sarasota, FL, U.S.A.) was implanted subcutaneously into the upper right flank shortly before LNCaP cell injection. PC3 tumors and LNCaP tumors reached sizes of ∼300−500 mm^3 after 3−5 weeks and 6−8 weeks, respectively, and were used for the in vivo experiments. PET imaging of E5B9-^68Ga-NOTA-BBN2 monomeric and dimeric TMs was performed on an INVEON® PET/CT scanner (Siemens Preclinical Solutions, Knoxville, TN, USA). Prior to radiotracer injection, mice were anesthetized through inhalation of isoflurane in 40% oxygen/60% nitrogen (gas flow 1 L/min), and body temperature was kept constant at 37 °C. The mice were placed in a prone position in the center of the field of view. A transmission scan for attenuation correction was not acquired. Mice were injected with 4−8 MBq of E5B9-^68Ga-NOTA-BBN2 or E5B9-^68Ga-NOTA-(BBN2)2 in 150 μL 10% EtOH/saline solution through a tail vein catheter. For blocking studies, PC3- and LNCaP-tumor-bearing […] mice were pre-dosed i.v. with 300 μg of Ava-BBN2 (15 min prior to radiotracer injection) in 50 uL saline. Data acquisition was performed over 60 min in 3D list mode. The dynamic list mode data were sorted into sinograms with 54 time frames (10 × 2, 8 × 5, 6 × 10, 6 × 20, 8 × 60, 10 × 120, 6 × 300 s). The frames were reconstructed using maximum a posteriori (MAP) as the reconstruction mode. No correction for partial volume effects was applied. The image files were processed using the ROVER v2.0.51 software (ABX GmbH, Radeberg, Germany). […] ROIs covered all visible tumor mass of the subcutaneous tumors, and the thresholds were defined by 50% of the maximum radioactivity uptake level. Mean standardized uptake values [SUVmean = (activity/mL tissue)/(injected activity/body weight), […]] were calculated for each ROI, and time−activity curves (TACs) were generated. For each experimental group (different radiotracers and mouse tumor models as well as control and blocking experiments), n = 3–6 mice were measured. […] Blocking experiments were conducted in the same mice: first, a control scan was measured and then repeated 1–2 days after in the presence of a blocking concentration of 300 μg of Ava-BBN2. All semi-quantified PET data are presented as means ± SEM. […]

[1] = as above; type: in vivo, mouse; details: male, BALB/c Nude, mouse, in vivo, iv, total radioactivity
Protocol: as §1

[2] = Dynamic PET imaging, tumor uptake in LNCaP xenografts; type: in vivo, mouse; details: male, BALB/c Nude, mouse, in vivo, iv, total radioactivity
Protocol: as §1

LNCaP cancer cells = type: cell-based, human; details: 48 h
Protocol: (§2) Standard chromium (^51Cr)-release cytotoxicity assays were performed to assess the killing of tumor cells by redirected UniCAR T-cells as previously described. Briefly, chromium-labeled target cells were incubated for 48 h with UniCAR T-cells at an effector-to-target cell (E:T) ratio of 5:1 in the absence or presence of different TM concentrations. The radioactive signal in the supernatants was measured using a MicroBeta Microplate Counter (PerkinElmer, Rodgau, Germany).

PC3 cancer cells = type: cell-based, human; details: 48 h
Protocol: as §2

[3] = competition against 125I-Tyr4-bombesin (0.05 nM) in PC3 cells, 2 h at 4 °C, triplicates, gamma counter, mean ± SEM, read-out: IC50 (competition binding to GRPR)

T1 sequence (P30550 whole entry): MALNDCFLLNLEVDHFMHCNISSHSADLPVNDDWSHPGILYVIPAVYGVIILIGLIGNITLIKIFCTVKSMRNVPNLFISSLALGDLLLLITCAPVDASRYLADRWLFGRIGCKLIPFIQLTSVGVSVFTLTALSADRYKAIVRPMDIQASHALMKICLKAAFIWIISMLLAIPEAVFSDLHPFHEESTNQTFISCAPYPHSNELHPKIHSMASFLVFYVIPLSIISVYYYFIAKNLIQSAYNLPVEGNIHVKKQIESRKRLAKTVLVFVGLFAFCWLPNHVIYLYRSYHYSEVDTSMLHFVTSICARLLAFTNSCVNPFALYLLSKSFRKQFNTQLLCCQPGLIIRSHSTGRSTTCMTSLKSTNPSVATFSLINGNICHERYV

IC50 (GRPR; [3]) [nM] | SMILES | SUV at 1 h [1] [SUV] | SUV at 1 h [2] [SUV] | also measured
0.7 ± 0.1 | CC[C@H](C)[C@@H](CCC(=O)N[C@H](C(N)=O)C(C)(C)C)NC(=O)[C@H](Cc1c[nH]cn1)NC(=O)CN(C)C(=O)[C@@H](NC(=O)[C@H](C)NC(=O)[C@H](Cc1c[nH]c2ccccc12)NC(=O)[C@H](CCC(N)=O)NC(=O)CCCCNC(=O)CC[C@H](NC(=O)[C@H](CCCCn1nnc2c1-c1ccccc1CN(C(=O)CCNC(=O)CCOCCOCCOCCOCCNC(=O)CCN1C(=O)CC(SC[C@H](NC(=O)[C@H](Cc3ccc(O)cc3)NC(=O)[C@H](CCC(=O)O)NC(=O)[C@H](CC(=O)O)NC(=O)[C@@H](NC(=O)[C@@H](NC(=O)[C@H](CCC(=O)O)NC(=O)[C@@H]3CCCN3C(=O)[C@H](CC(C)C)NC(=O)[C@@H]3CCCN3C(=O)[C@H](CCCCN)NC(=O)[C@@H](N)CO)C(C)C)[C@@H](C)O)C(=O)O)C1=O)c1ccccc1-2)NC(=O)CCCCNC(=S)Nc1ccc(C[C@H]2CN(CC(=O)O)CCN(CC(=O)O)CCN2CC(=O)O)cc1)C(=O)NCCCCC(=O)N[C@@H](CCC(N)=O)C(=O)N[C@@H](Cc1c[nH]c2ccccc12)C(=O)N[C@@H](C)C(=O)N[C@H](C(=O)N(C)CC(=O)N[C@@H](Cc1c[nH]cn1)C(=O)N[C@H](CCC(=O)N[C@H](C(N)=O)C(C)(C)C)[C@@H](C)CC)C(C)C)C(C)C (stereo partly shown) [E5B9-NOTA-(BBN2)2 TM] | – | – | –
– | CC[C@H](C)[C@@H](CCC(=O)N[C@H](C(N)=O)C(C)(C)C)NC(=O)[C@H](Cc1c[nH]cn1)NC(=O)CN(C)C(=O)[C@@H](NC(=O)[C@H](C)NC(=O)[C@H](Cc1c[nH]c2ccccc12)NC(=O)[C@H](CCC(N)=O)NC(=O)[C@H](CCCCn1nnc2c1-c1ccccc1CN(C(=O)CCNC(=O)CCOCCOCCOCCOCCNC(=O)CCN1C(=O)CC(SC[C@H](NC(=O)[C@H](Cc3ccc(O)cc3)NC(=O)[C@H](CCC(=O)O)NC(=O)[C@H](CC(=O)O)NC(=O)[C@@H](NC(=O)[C@@H](NC(=O)[C@H](CCC(=O)O)NC(=O)[C@@H]3CCCN3C(=O)[C@H](CC(C)C)NC(=O)[C@@H]3CCCN3C(=O)[C@H](CCCCN)NC(=O)[C@@H](N)CO)C(C)C)[C@@H](C)O)C(=O)O)C1=O)c1ccccc1-2)NC(=O)CCCCNC(=S)Nc1ccc(C[C@H]2CN(CC(=O)O)CCN(CC(=O)O)CCN2CC(=O)O)cc1)C(C)C (stereo partly drawn) [monomeric ^68Ga-BBN2 TM, metal not drawn] (I: H-SKPLPEVTDEYC-OH / II: {NOTA(2S-Bn(4-NHCS))-Ava}-[X1]QWAV[Sar]H[γ4hIle][Tle]-NH2; linker I:12-II:1 via X2) | 0.44 ± 0.01 | 0.44 ± 0.11 | in vivo blocking of tumor uptake (PC3 tumors): 39 ± 9%
190 ± 0.04 | CC[C@H](C)[C@@H](CCC(=O)N[C@H](C(N)=O)C(C)(C)C)NC(=O)[C@H](Cc1c[nH]cn1)NC(=O)CN(C)C(=O)[C@@H](NC(=O)[C@H](C)NC(=O)[C@H](Cc1c[nH]c2ccccc12)NC(=O)[C@H](CCC(N)=O)NC(=O)[C@H](CCCCn1nnc2c1-c1ccccc1CN(C(=O)CCNC(=O)CCOCCOCCOCCOCCNC(=O)CCN1C(=O)CC(SC[C@H](NC(=O)[C@H](Cc3ccc(O)cc3)NC(=O)[C@H](CCC(=O)O)NC(=O)[C@H](CC(=O)O)NC(=O)[C@@H](NC(=O)[C@@H](NC(=O)[C@H](CCC(=O)O)NC(=O)[C@@H]3CCCN3C(=O)[C@H](CC(C)C)NC(=O)[C@@H]3CCCN3C(=O)[C@H](CCCCN)NC(=O)[C@@H](N)CO)C(C)C)[C@@H](C)O)C(=O)O)C1=O)c1ccccc1-2)NC(=O)CCCCNC(=S)Nc1ccc(C[C@H]2CN(CC(=O)O)CCN(CC(=O)O)CCN2CC(=O)O)cc1)C(C)C (stereo partly drawn) [E5B9-NOTA-BBN2 TM] (I: H-SKPLPEVTDEYC-OH / II: {NOTA(2S-Bn(4-NHCS))-Ava}-[X1]QWAV[Sar]H[γ4hIle][Tle]-NH2; linker I:12-II:1 via X2) | – | – | EC50 (LNCaP cancer cells): 29.8 nM; EC50 (PC3 cancer cells): 32 nM
– | CC[C@H](C)[C@@H](CCC(=O)N[C@H](C(N)=O)C(C)(C)C)NC(=O)[C@H](Cc1c[nH]cn1)NC(=O)CN(C)C(=O)[C@@H](NC(=O)[C@H](C)NC(=O)[C@H](Cc1c[nH]c2ccccc12)NC(=O)[C@H](CCC(N)=O)NC(=O)CCCCNC(=S)Nc1ccc(C[C@H]2CN(CC(=O)O)CCN(CC(=O)O)CCN2CC(=O)O)cc1)C(C)C [^68Ga-NOTA-BBN2, metal not drawn, reference compound] ({NOTA(2S-Bn(4-NHCS))-Ava}-QWAV[Sar]H[γ4hIle][Tle]-NH2; N-terminus and C-terminus assumed) | 0.46 ± 0.05 | 0.38 ± 0.02 | –
– | CSCC[C@H](NC(=O)[C@H](CC(C)C)NC(=O)[C@H](Cc1c[nH]cn1)NC(=O)CNC(=O)[C@@H](NC(=O)[C@H](C)NC(=O)[C@H](Cc1c[nH]c2ccccc12)NC(=O)[C@H](Cc1c[nH]cn1)NC(=O)[C@H](CC(N)=O)NC(=O)CNC(=O)[C@H](CCCN=C(N)N)NC(=O)[C@@H]1CCCN1C(=O)[C@H](Cc1ccc(O)cc1)NC(=O)[C@H](CCSC)NC(=O)[C@H](CCCCN)NC(=O)[C@@H](NC(=O)[C@H](CC(C)C)NC(=O)[C@@H](NC(=O)[C@@H](NC(=O)CNC(=O)CNC(=O)CNC(=O)[C@H](C)NC(=O)[C@@H]1CCCN1C(=O)[C@H](CC(C)C)NC(=O)[C@@H]1CCCN1C(=O)[C@@H](N)C(C)C)[C@@H](C)O)C(C)C)[C@@H](C)O)C(C)C)C(N)=O [GRP, gastrin-releasing peptide, reference compound] | – | – | IC50 (GRPR): 0.15 ± 0.05 nM
